Laboratory results published in patent US6593306B1, “Methods for modulation and inhibition of telomerase” (Board of Regents, The University of Texas Systems, priority 1995, dated 2003).
“And” between values parts separate entries of the source, which are not always exact repeats. Equal entries are not always repeated. Each block holds one compound with its values, some of them ahead of it.

Legend:
Format in all cases: biochemical
human cancer telomerase [1] = target: T1, human cancer telomerase (Homo sapiens, UniProt O14746); test: Nucleoside triphosphate as telomerase substrate, dGTP replaced in modified reaction; settings: modified assay; 1 mM dTTP, 3.12 μM [α-32P]dATP
T1 construct: endogenous in cells; host or cells: human cancer cells

[2] = target: T2, human 293 cell telomerase (Homo sapiens, UniProt O14746); test: Conventional telomerase assay (32P-dGTP as radiolabel substrate); settings: for Inhibition of 293 Telomerase, Conventional Assay *dGTP: up to 2 mM
T2 construct: with 20 μl of S100 enzyme extract; endogenous in cells; host or cells: 293 cells (transformed human embryonic kidney), S100 extract
Description: (§1) Telomerase was prepared from transformed human embryonic kidney 293 cell line. Human embryonic kidney 293 cells were grown in Joklik's modified MEM niedium (Sigma, St Louis, Mo.) supplemented with 5% fetal bovine serum at 37° C. in a humidified atmosphere with 5% CO2. The cells were subcultured at 1-2×10^5 cells/ml twice a week. When the cells grew to approximately 1×10^6 cells/ml, the cells (˜2×10^9 cells) were centrifuged and transferred into polypropylene centrifuge (50 ml) tubes and kept on ice. The cells were then centrifuged in a (Beckman GS-6R) centrifuge at 1200 RPM for 10 minutes at 4° C., and resuspended in PBS. The washed cells were resuspended in 15 ml Hypobuffer Mix (10 mM HEPES, pH 8.0, 3 mM KCl, 1 mM MgCl2, 1 mM dithiothreitol, 1 μM leupeptin, 0.1 mM PMSF, 10 μM pepstatin, 0.83 μg/ml chymostatin, 0.83 μg/ml antipain, and 43.2 units/ml RNase Guard) and centrifuged. The cell pellets were resuspended in 0.75×volumes Hypobuffer [Hypobuffer Mix+40 units/ml RNase Guard (Pharmacia, N.J.) to allow the cells to swell. The cell suspensions were homogenized to allow the telomerase to “leak” into the cytosolic fraction. The lysate was then poured into new, autoclaved, 3 ml polyallomer ultracentrifuge tubes and centrifuged at 100,000×g for 1 hour at 4° C. A top lipid layer was carefully removed and discarded, and the supernatant was collected. 1/50 of the volume of 5 M NaCl was added to the clear supernatant fluid to achieve a final concentration of 0.1 M. Sterile glycerol was added until the final glycerol concentration was 20%. The enzyme solution was aliquoted into Eppendorf tubes and quickly frozen in liquid nitrogen and stored at −70° C.
The assay is based on the ability of the telomerase enzyme in the S100 fractions to recognize an 18-base DNA primer with the DNA sequence (TTAGGG)3. DNA polymerization initiates from the 3′-OH group of the oligonucleotide. By reading from its complementary internal RNA template, telomerase adds a repeated set of 5′-TTAGGG-3′ to the original 18-base primer. Non-synchronous “starts” and “terminations” among the different enzyme complexes result in a degenerative set of different length DNA primers occurring in 6-base increments. Incorporation of [α-^32P]dGTP at the guanine positions of the 5′-TTAGGG-3′ sequence allows the newly synthesized DNA fragments to be visualized by autoradiography. The resulting image forms the characteristic “ladder” structure that is used to identify telomerase activity. The images are scanned using a phosphoimager or laser densitometer (Molecular Dynamics, Sunnyvale, Calif.). Comparisons of the total volumes under the corresponding peaks are used to quantitate the total amount of [α-^32P] incorporated in the primer extension reaction.
The telomerase assay was initiated by mixing 20 μl of 2×reaction mix (100 mM Tris-OAc, pH 8.5, 100 mM KOAc, 10 mM β-mercaptoethanol, 2 mM spermidine, 2 mM MgCl2, 2 mM dATP, 2 mM dTTP, 2 μM oligo primer, potential inhibitors of interest at the appropriate concentration, and 50 μCi [α^32-P]dGTP) with 20 μl of S100 enzyme extract. The reaction mixture was then incubated at 30° C. for 1 hour. The reaction was stopped by incubating sequentially with 50 μl of the stop solution (10 mM Tris pH 7.5, 20 mM EDTA, 0.1 mg/ml RNase A) and 50 μl of deproteinase solution (10 mM Tris pH 7.5, 0.5% SDS, 0.3 mg/ml Proteinase K). The mixture was extracted with 50% phenol/50% chloroform (v/v). The DNA was then precipitated by adding 2.5×volumes of cold EtOH and letting it stand overnight at −70° C. The DNAs were separated on an 8% polyacrylamide/7M urea denaturing gel at 1600 V for 1.5 hours. The gel was dried and exposed to Kodak XAR-5 film to gel in −70° C. Typical autoradiographic exposures required 3-14 days.

human telomerase = target: T3, human telomerase (Homo sapiens, UniProt O14746); test: Cell-free telomerase inhibition, conventional or modified assay not stated; settings: for IC50: Summary values, assay variant not stated, read-out: IC50
T3 construct: telomerase in S100 extracts of transformed human fetal kidney tumor 293 cells (a processive telomerase); endogenous in cells; host or cells: human cells, (S100 extract)
Description: Selected nucleoside triphosphates were tested in one or both of the “conventional” or “modified” telomerase assays described in Methods using the human processive and the CHO non-processive telomerases. Initially, three chain-terminators were selected: 2′,3′-dideoxythymidine triphosphate (ddTTP), 3′-fluoro-2′,3′-dideoxythymidine triphosphate (F-ddTTP), and 3′-azido-2′-, 3′-dideoxythymidine triphosphate (AZ-ddTTP) as prototype agents to investigate whether they could inhibit telomerase activity. The three compounds are dTTP analogs without a 3′-OH group for subsequent chain elongation. They may either incorporate into the telomere sequence and terminate further chain elongation or compete directly with dTTP for the substrate binding site in the telomerase reaction. In either case, telomerase activity is inhibited.

[3] = target: T2, human 293 cell telomerase; test: Modified telomerase assay (32P-dATP as radiolabeled substrate); settings: for Inhibition of 293 cell telomerase, modified assay: competing radioactive nucleotide 3.12 μM [α32P]dATP
Description: as §1
In the conventional telomerase assay, the concentrations of both non-radiolabeled nucleotides, dATP and dTTP, are 1 mM, and the concentration of the radiolabeled [^32P]dGTP is 1.56 μM. Because of the high concentration of dATP and dTTP, the standard assay may not be suitable for determining the potential telomerase inhibition of any “Adenine or Thymine” analogs. […] All other chemicals and reaction conditions are identical to the conventional assay.

human cancer telomerase [4] = target: T1, human cancer telomerase; test: Nucleoside triphosphate as telomerase substrate, dATP replaced in conventional reaction; settings: for incorporation into telomeric ladders, replacing dATP: conventional assay, 0.125-2 mM tested; for Substrate of 293 Telomerase: dATP analogs
Source text: As described in Section 2, telomerase catalyzes the incorporation of dATP, dTTP and [α-^32P]dGTP into a (TTAGGG)3 primer. In order to determine whether dATP analog can be incorporated into telomere, native dATP in the standard telomerase reaction is replaced with various concentrations of dATP analogs. Following the reaction, telomeric products are isolated and analyzed as described in Section 2. Similarly, native dTTP in the standard telomerase reaction can be replaced by a structurally modified dTTP analog to test whether the dTTP analog can be used as a telomerase substrate.

[5] = 0.125 mM, read-out: % of Control
[6] = 0.25 mM, read-out: % of Control
[7] = [α-32P]dGTP 1.56 μM, TTP and dATP 1 mM

T1 sequence (O14746 whole entry): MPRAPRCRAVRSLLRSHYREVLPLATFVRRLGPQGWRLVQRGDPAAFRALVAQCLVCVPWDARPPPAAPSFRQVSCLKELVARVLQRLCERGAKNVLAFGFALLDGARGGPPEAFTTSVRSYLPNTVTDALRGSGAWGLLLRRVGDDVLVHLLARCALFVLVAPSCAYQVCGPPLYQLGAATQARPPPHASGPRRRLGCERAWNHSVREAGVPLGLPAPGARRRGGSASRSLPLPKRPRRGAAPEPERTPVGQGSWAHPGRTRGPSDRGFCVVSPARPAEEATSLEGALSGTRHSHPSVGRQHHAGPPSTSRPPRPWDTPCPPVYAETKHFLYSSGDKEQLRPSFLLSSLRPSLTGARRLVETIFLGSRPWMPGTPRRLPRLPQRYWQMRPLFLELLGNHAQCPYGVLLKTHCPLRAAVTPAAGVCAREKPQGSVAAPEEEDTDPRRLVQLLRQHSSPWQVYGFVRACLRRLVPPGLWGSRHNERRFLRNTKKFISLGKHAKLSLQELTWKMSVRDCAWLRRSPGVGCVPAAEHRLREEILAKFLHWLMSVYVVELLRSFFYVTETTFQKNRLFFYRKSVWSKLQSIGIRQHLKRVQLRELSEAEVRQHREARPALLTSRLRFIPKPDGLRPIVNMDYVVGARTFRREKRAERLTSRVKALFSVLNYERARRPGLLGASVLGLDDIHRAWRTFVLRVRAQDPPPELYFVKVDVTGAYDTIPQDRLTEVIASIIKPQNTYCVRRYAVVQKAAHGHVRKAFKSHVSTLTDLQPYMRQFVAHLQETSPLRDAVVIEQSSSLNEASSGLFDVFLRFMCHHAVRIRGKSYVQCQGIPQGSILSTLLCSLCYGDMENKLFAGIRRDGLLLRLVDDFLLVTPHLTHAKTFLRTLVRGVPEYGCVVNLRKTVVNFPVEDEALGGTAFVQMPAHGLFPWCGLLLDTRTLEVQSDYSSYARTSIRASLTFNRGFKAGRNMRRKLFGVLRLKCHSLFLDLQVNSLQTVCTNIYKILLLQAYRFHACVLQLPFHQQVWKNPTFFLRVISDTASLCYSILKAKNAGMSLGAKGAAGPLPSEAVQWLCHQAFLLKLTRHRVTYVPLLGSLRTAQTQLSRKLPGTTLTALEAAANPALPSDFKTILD
T1 sequence (O60832 whole entry partner): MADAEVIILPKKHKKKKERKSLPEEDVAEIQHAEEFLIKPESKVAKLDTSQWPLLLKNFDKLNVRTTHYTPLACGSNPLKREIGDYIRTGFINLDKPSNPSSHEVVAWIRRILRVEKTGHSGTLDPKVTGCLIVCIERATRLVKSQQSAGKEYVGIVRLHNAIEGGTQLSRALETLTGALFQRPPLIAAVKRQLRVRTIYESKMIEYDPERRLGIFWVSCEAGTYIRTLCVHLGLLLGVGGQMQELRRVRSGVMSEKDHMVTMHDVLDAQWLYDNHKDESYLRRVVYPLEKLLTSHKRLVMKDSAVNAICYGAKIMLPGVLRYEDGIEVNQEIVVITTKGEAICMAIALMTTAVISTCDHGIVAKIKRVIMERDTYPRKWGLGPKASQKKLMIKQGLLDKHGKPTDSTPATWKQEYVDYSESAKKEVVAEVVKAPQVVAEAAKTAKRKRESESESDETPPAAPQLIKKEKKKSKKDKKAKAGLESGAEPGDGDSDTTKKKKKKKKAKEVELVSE
T1 sequence (Q9NPE3 whole entry partner): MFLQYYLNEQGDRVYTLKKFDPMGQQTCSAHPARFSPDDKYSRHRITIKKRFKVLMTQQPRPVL
T1 sequence (Q9NX24 whole entry partner): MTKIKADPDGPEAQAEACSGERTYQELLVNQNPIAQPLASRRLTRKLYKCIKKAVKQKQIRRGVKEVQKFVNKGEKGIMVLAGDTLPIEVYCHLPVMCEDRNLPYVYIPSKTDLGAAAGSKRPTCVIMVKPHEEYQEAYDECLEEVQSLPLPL
T1 sequence (Q9NY12 whole entry partner): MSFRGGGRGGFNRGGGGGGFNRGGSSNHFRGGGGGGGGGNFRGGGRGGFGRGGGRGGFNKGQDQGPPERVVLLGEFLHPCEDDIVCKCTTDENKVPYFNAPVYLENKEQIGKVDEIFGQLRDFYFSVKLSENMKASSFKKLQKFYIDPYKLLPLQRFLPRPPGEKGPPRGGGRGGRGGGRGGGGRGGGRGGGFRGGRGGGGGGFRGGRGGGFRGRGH
T3 sequence (O14746 whole entry): as the sequence (O14746 whole entry) above
T3 sequence (O60832 whole entry partner): as the sequence (O60832 whole entry partner) above
T3 sequence (Q9NPE3 whole entry partner): as the sequence (Q9NPE3 whole entry partner) above
T3 sequence (Q9NX24 whole entry partner): as the sequence (Q9NX24 whole entry partner) above
T3 sequence (Q9NY12 whole entry partner): as the sequence (Q9NY12 whole entry partner) above
T2 sequence (O14746 whole entry): as the sequence (O14746 whole entry) above
T2 sequence (O60832 whole entry partner): as the sequence (O60832 whole entry partner) above
T2 sequence (Q9NPE3 whole entry partner): as the sequence (Q9NPE3 whole entry partner) above
T2 sequence (Q9NX24 whole entry partner): as the sequence (Q9NX24 whole entry partner) above
T2 sequence (Q9NY12 whole entry partner): as the sequence (Q9NY12 whole entry partner) above

Compound: Nc1nc2c(ccn2[C@H]2C[C@H](O)[C@@H](COP(=O)(O)OP(=O)(O)OP(=O)(O)O)O2)c(=S)[nH]1 [Compound 8, 6-Thio-7-deaza-2′-deoxyguanosine Triphosphate]
incorporation into telomeric ladders, replacing dGTP (human cancer telomerase [1]): incorporation

Compound: Nc1nc2c(ncn2[C@H]2C[C@H](O)[C@@H](COP(O)(=S)OP(=O)(O)OP(=O)(O)O)O2)c(=O)[nH]1 (stereo partly drawn) [NA013, 2′-Deoxyguanosine-5′-O-(1-thiotriphosphate)]
remaining activity at 125 µM [2, 5]: 75%
remaining activity at 250 µM [2, 6]: 47%
remaining activity at 500 µM ([2]; 0.5 mM, read-out: % of Control): 0%
remaining activity at 1000 µM ([2]; 1.0 mM, read-out: % of Control): 0%
remaining activity at 2000 µM ([2]; 2.0 mM, read-out: % of Control): 0%
IC50 ([2]; 293 cell telomerase): < 125 µM
Inhibition of 293 Telomerase, Conventional Assay *dGTP [2]: concentration-dependent inhibition
incorporation into telomeric ladders, replacing dGTP (human cancer telomerase [1]): incorporated
IC50 (human telomerase): 81.5 µM

Compound: Nc1ncnc2c1ncn2[C@H]1C[C@H](O)[C@@H](COP(O)(=S)OP(=O)(O)OP(=O)(O)O)O1 (stereo partly drawn) [NA006, 2′-Deoxyadenosine-5′—O—(1-Thio-Triphosphate)]
remaining activity at 125 µM [2, 5]: 120%
remaining activity at 250 µM [2, 6]: 103%
remaining activity at 500 µM ([2]; 0.5 mM, read-out: % of Control): 103%
remaining activity at 1000 µM ([2]; 1.0 mM, read-out: % of Control): 100%
remaining activity at 2000 µM ([2]; 2.0 mM, read-out: % of Control): 113%
Inhibition of 293 Telomerase, Conventional Assay *dGTP [2]: No Inhibition (up to 2 mM)
remaining activity at 125 µM [3, 5]: 0%
remaining activity at 250 µM [3, 6]: 0%
remaining activity at 500 µM ([3]; 0.5 mM, read-out: % of Control): 0%
remaining activity at 1000 µM ([3]; 1.0 mM, read-out: % of Control): 0%
remaining activity at 2000 µM ([3]; 2 mM, read-out: % of Control): 0%
Inhibition of 293 cell telomerase, modified assay [3]: concentration-dependent inhibition
incorporation into telomeric ladders, replacing dATP (human cancer telomerase [4]): incorporated
Substrate of 293 Telomerase (human cancer telomerase [4]): Is a substrate No substrate inhibition

Second part, led by results:

remaining activity at 12.5 µM ([2]; 0.0125 mM, read-out: % of Control): 0%
remaining activity at 25 µM ([2]; 0.025 mM, read-out: % of Control): 0%
remaining activity at 50 µM ([2]; 0.05 mM, read-out: % of Control): 0%
remaining activity at 100 µM ([2]; 0.1 mM, read-out: % of Control): 0%
remaining activity at 200 µM ([2]; 0.2 mM, read-out: % of Control): 0%
remaining activity at 500 µM ([2]; 0.5 mM, read-out: % of Control): 0%
remaining activity at 1000 µM ([2]; 1.0 mM, read-out: % of Control): 0%
IC50 [2, 7]: < 125 µM
concentration at which telomerase activity is completely inhibited ([2]; lowest concentration tested): ≤ 12.5 µM
Compound: Nc1nc2c(ncn2[C@H]2CC[C@@H](COP(=O)(O)OP(=O)(O)OP(=O)(O)O)O2)c(=O)[nH]1 [NA020, 2′,3′-Dideoxyguanosine-5′-Triphosphate]
incorporation into telomeric ladders, replacing dGTP (human cancer telomerase [1]): no apparent NA020 incorporation was detected

% of Control ([2]; 0.125 mM): 70%
% of Control ([2]; 0.25 mM): 72%
% of Control ([2]; 0.5 mM): 88%
% of Control ([2]; 1.0 mM): 98%
% of Control ([2]; 2.0 mM): 99%
Inhibition of 293 Telomerase, Conventional Assay *dGTP [2]: No Inhibition (Up to 2 mM)
% of Control ([3]; 0.125 mM): 6%
% of Control ([3]; 0.25 mM): 1.7%
% of Control ([3]; 0.5 mM): 0%
% of Control ([3]; 1.0 mM): 0%
% of Control ([3]; 2 mM): 0%
Inhibition of 293 cell telomerase, modified assay [3]: concentration-dependent inhibition
incorporation into telomeric ladders, replacing dATP (human cancer telomerase [4]): incorporated
Compound: Nc1ncnc2c1ncn2[C@H]1C[C@H](O)[C@@H](COP(=O)(O)OP(=O)(O)CP(=O)(O)O)O1 [NA004, 2′-Deoxyadenosine-5′-β,γ-Methylene Triphosphate]
Substrate of 293 Telomerase (human cancer telomerase [4]): Replace dATP Is a substrate No substrate inhibition

IC50 [2, 7]: 59 µM and < 100 µM
Inhibition of 293 Telomerase, Conventional Assay *dGTP [2]: concentration-dependent inhibition
remaining activity at 1 µM ([3]; 1.0 μM, read-out: % of Control): 69%
remaining activity at 2.5 µM ([3]; 2.5 μM, read-out: % of Control): 46%
remaining activity at 5 µM ([3]; 5.0 μM, read-out: % of Control): 57%
remaining activity at 7.5 µM ([3]; 7.5 μM, read-out: % of Control): 40%
remaining activity at 10 µM ([3]; 10 μM, read-out: % of Control): 23%
remaining activity at 25 µM ([3]; 25 μM, read-out: % of Control): 4%
remaining activity at 50 µM ([3]; 50 μM, read-out: % of Control): 0%
remaining activity at 75 µM ([3]; 75 μM, read-out: % of Control): 0%
remaining activity at 100 µM ([3]; 100 μM, read-out: % of Control): 0%
IC50 ([3]; [α-32P]dATP 3.12 μM, TTP and dGTP 1 mM): 8 µM
Inhibition of 293 cell telomerase, modified assay [3]: concentration-dependent inhibition
concentration above which no telomerase activity was detected (human cancer telomerase [4]; dATP replaced, 1 mM TTP, 1.56 μM [α-32P]dGTP): > 1.5 mM
IC50 (human telomerase): 78.5 µM
Compound: Nc1ncnc2c1ccn2[C@H]1C[C@H](O)[C@@H](COP(=O)(O)OP(=O)(O)OP(=O)(O)O)O1 [NA023, 7-Deaza-2′-Deoxyadenosine-5′-Triphosphate]
Substrate of 293 Telomerase (human cancer telomerase [4]): Is a substrate Produces short telomere Substrate Inhibition

remaining activity at 125 µM [2, 5]: 118%
remaining activity at 250 µM [2, 6]: 116%
remaining activity at 500 µM ([2]; 0.5 mM, read-out: % of Control): 141%
remaining activity at 1000 µM ([2]; 1.0 mM, read-out: % of Control): 126%
remaining activity at 2000 µM ([2]; 2.0 mM, read-out: % of Control): 133%
Inhibition of 293 Telomerase, Conventional Assay *dGTP [2]: No Inhibition (up to 2 mM)
remaining activity at 125 µM [3, 5]: 0%
remaining activity at 250 µM [3, 6]: 0%
remaining activity at 500 µM ([3]; 0.5 mM, read-out: % of Control): 0%
remaining activity at 1000 µM ([3]; 1.0 mM, read-out: % of Control): 0%
remaining activity at 2000 µM ([3]; 2 mM, read-out: % of Control): 0%
inhibition of human telomerase activity (human telomerase; 1 mM): inhibited
Compound: Nc1ncnc2c1ncn2[C@H]1CC[C@@H](COP(=O)(O)OP(=O)(O)OP(=O)(O)O)O1 [NA007, 2′,3′-Dideoxyadenosine-5′-Triphosphate]
incorporation into telomeric ladders, replacing dATP (human cancer telomerase [4]): no apparent NA007 incorporation was detected
Substrate of 293 Telomerase (human cancer telomerase [4]): No product formed using (TTAGGG)^3 primer
